Results reported in ChEMBL document CHEMBL1132868, “A new class of highly cytotoxic diketopiperazines” (Bioorg Med Chem Lett, 2000).

Experiments:
L1210 = assay: The compound was tested for cytotoxic activity using standard L1210 cell based cytotoxicity assay; assay type: functional; conditions: Mus musculus
Nucleic Acid = assay: Compound was evaluated for DNA (poly[dA]-poly[dT]) binding affinity; assay type: nucleic-acid assay

Q: How did the IC50 (L1210) turn out when CN(C)CCCC(=O)Nc1ccc(C(=O)Nc2ccc3c(c2)cc2c(=O)n4c(cc5cc(NC(=O)c6ccc(NC(=O)CCCN(C)C)cc6)ccc54)c(=O)n23)cc1 was run?
A: Its IC50 is 7 µM.

Q: Which results are given for CN(C)CCCC(=O)Nc1ccc2c(c1)cc1c(=O)n3c(cc4cc(NC(=O)CCCN(C)C)ccc43)c(=O)n12?
A: IC50 (L1210): 0.034 µM; K (Nucleic Acid): 203000

Q: Which IC50 (L1210) does the source give for CN(C)CCCC(=O)Nc1csc(C(=O)Nc2ccc3c(c2)cc2c(=O)n4c(cc5cc(NC(=O)c6csc(NC(=O)CCCN(C)C)n6)ccc54)c(=O)n23)n1 here?
A: The IC50 was 4 µM.

Q: How did the IC50 (L1210) turn out when Nc1ccc2c(c1)cc1c(=O)n3c(cc4cc(N)ccc43)c(=O)n12 was run?
A: The IC50 was 30 µM.

Q: How did the IC50 (L1210) turn out when CC(C)(C)OC(=O)Nc1ccc2c(c1)cc1c(=O)n3c(cc4cc(NC(=O)OC(C)(C)C)ccc43)c(=O)n12 was run?
A: The IC50 was 29 µM.
